The values that follow come from publication PMC12515563, “Kinetic, Spectral, and Structural Characterization of a Heme-Containing Peroxidase From the Skin of Cucurbita maxima” (Biochemistry Research International, 2025).

SMILES strings stand for the structures.

The target in the test is T1, horseradish peroxidase (HRP) (Armoracia rusticana, UniProt P00433).
T1 construct: gene PRXC1A; commercial horseradish peroxidase
T1 sequence (P00433 31-338): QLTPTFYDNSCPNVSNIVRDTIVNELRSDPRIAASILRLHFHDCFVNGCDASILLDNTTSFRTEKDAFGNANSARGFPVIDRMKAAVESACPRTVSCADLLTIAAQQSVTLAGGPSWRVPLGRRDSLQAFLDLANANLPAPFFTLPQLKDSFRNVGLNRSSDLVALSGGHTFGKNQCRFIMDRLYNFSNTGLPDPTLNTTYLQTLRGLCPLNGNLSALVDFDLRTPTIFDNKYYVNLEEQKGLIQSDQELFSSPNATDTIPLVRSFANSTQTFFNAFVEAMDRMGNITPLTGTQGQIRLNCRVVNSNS
Nature of the test: UV-vis absorption difference spectra (data not shown). The class given is binding.

As for `CC(=O)O` [acetate], the “UV-vis absorption difference spectra (data not shown)” value is “both HRP and PKS demonstrated similar effects with acetate in the current study (data not shown)”.
